The values below come from US20220096431A1, “PHARMACEUTICAL COMPOSITION AND METHOD FOR PREVENTING, TREATING AND DIAGNOSING A NEURODEGENERATIVE DISEASE” (BUDDHIST TZU CHI MEDICAL FOUNDATION, priority 2020, published 2022).

One series concerns Notch signaling. Conditions: background; cited from earlier work.
A further series has as its system 3xTg AD mice. Description: Morris water maze test in AD-3xTg mice. Type of series: in vivo. The protocol: Red dot, starting point of the swim; green dot, end point of the swim.
N=4 for wild-type and 10 mg/kg donepezil-treated 3xTg mice. N=6 for vehicle-treated 3xTg mice, 60 mg/kg n-BP-treated 3xTg mice, and 120 mg/kg n-BP-treated 3xTg mice. *p-value<0.05, **p-value<0.01 (Student's t-test). […] After 4-12 months, the B6 (C57/BL6) control mice have no AP accumulation (Green color).
The mice behavioral experiment using Morris water maze is a classical test to detect short-term memory and complex memory. Through its behavior, it can be determined whether there is a difference in memory after drug treatment. […] Two sessions were conducted on Day 1 as follows: (1) mice were placed in the swimming pool to adapt to the environment for a training duration of 120 seconds; (2) a hidden rest platform was added to the pool at a precise location in the northwest corner of the pool (blue diamond in the east; red circle in the west and yellow triangle in the south as shown in FIG. 7G) and the mice were allowed for to swim in the pool for a duration of another 120 seconds. If the rescue platform was not found by the mouse within the allocated time, the mouse was guided to the platform. The test for finding the rescue platform is carried out for the next four consecutive days, with each session lasting 90 seconds. The result is collected and analyzed.

A further series has as its system SH-SY5Y. The experiment in a line: Aβ1-42 poisoning experiment in SH-SY5Y cells (MTT). The format is cell-based, human. Conditions: n-butylidenephthalide 100 μM, vitamin C 200 μM, alone or in combination, Aβ1-42 1 μM.
In another series the test system is 3′-UTR of PSEN-1. Description: Dual luciferase assay with PSEN-1 3′-UTR reporter constructs in SH-SY5Y cells. The format is cell-based, human. Conditions: 50 nM miR-29b-2-5p. The protocol:
The relative ratios of Renilla and firefly luciferase activity were measured.
The specificity and inhibitory effect of miRNA-29b-2-5p on the specific sequence of PSEN-1 can be confirmed by a dual luciferase assay. The dual luciferase assay includes two luminescence proteins, namely firefly luciferase (molecular weight 61 kDa, emission wavelength at about 560 nm) isolated from firefly (Photlnus pyralls) and Renilla luciferase (molecular weight 31 kDa, emission wavelength at about 480 nm) isolated from Renilla reniformis, which are combined with the sequence to be analyzed and cloned into a vector for amplification. After transfection into cells, the cells emit luminescence. To investigate the influence of these complementary sites, neuroblastoma cell line (SH-SY5Y) as shown in FIG. 2D is used as the cell model and 2 constructs containing continuous complementary (wild type) and noncomplementary (mutant) target site were designed as shown in FIG. 2E. The constructs were then transfected with a miR-29b-2-5p mimic into the SH-SY5Y cell line. The present disclosure uses three different PSEN-1 sequences for dual luciferase analysis, including the wild-type 3′-UTR sequence of PSEN-1, the site 2 mutant having a mutation at site 2 sequence of PSEN-1 that is predicted to be complementary to miRNA-29b-2-5p and double mutant in which both the site 1 and site 2 sequences, which are the sequences of PSEN-1 predicted to be complementary to miRNA-29b-2-5p, are mutated.

For series [1], the system named is PSEN-1, PSEN-2, Aβ1-42 and NICD in C6-C99 cells. Description: Western blotting of amyloid-related proteins in C6-C99 cells. Type of series: cell-based. Conditions: C6-C99 cells transfected with miR-29b-2-5p mimic; compared with control cells; n=3. The text has this: FIG. 3B to FIG. 3E are the quantitative results of the Western blotting analysis of PSEN-1, PSEN-2, β-amyloid 1-42 (Aβ1-42) and NICD in FIG. 3A, respectively (p*<0.05, p**<0.01). The C6-C99 cells used in FIGS. 3A to 3E are glioma cells having a fragment of human amyloid precursor protein (APP). This fragment is a peptide fragment with 99 amino acids (APP-C99), which can express large amounts of PSEN-1, PSEN-2, and Aβ 1-42 after activation by cumate.
Western blotting is used to detect the expression levels of amyloid-related proteins, including PSEN-1, PSEN-2, and β-amyloid 1-42 (Aβ1-42), while simultaneously detect the expression level of Notch protein (Notch intracellular domain, NICD), which is an indicator of drug safety. If the Notch protein is not affected, then drug safety is indicated.
APP-C99 was transfected into C6 cells with the C99 peptide through cumate-inducible system activation.

The subject of another series is lnc-CYP3A43-2. The experiment in a line: Biotin-based pulldown assay with real-time PCR. The following applies: real-time PCR of miRNA; n=3. The text has this:
Then, a biotin-based pulldown assay was used to validate this interaction. The result shown in FIG. 6H indicates the lnc-CYP3A43-2 can affect target miR-29b-2-5p (41.84-fold).
A general note: In qPCR the cycle at which signal appears reflects the starting amount.

Series [2] concerns PSEN-1, PSEN-2, Aβ1-42 and NICD in C6-C99 cells. Description: Western blotting of amyloid-related proteins in C6-C99 cells. Type of series: cell-based. Conditions: C6-C99 cells transfected with miR-29b-2-5p mimic, compared with control cells, n=3. Background: Immunoblotting shows a protein as a band on a membrane.

For `CC(C)[C@H](O)C(=O)N[C@@H](C)C(=O)N[C@@H]1C(=O)N(C)CCc2ccccc21` [LY450139], in the series on Notch signaling, the Adverse reactions result was “causes skin tumors and differentiation of intestinal epithelial cell”; the “Effect on Notch signaling” value is “damages Notch signaling”.

Consider `COc1cc2c(cc1OC)C(=O)C(CC1CCN(Cc3ccccc3)CC1)C2` (stereo not shown) [donepezil, reference compound], for which, in the series on 3xTg AD mice (120 mg/kg n-BP, donepezil as positive control), the “Locating and arriving at the resting platform” value is “able to quickly locate and arrive at the resting platform”. Besides, in the series with 3xTg AD mice (Day 5, 120 mg/kg n-BP, 10 mg donepezil/kg, vs untreated 3xTg mice), the “Time required to find the platform” value is listed as “significantly lower”.

Take `O=C1O[C@H]([C@@H](O)CO)C(O)=C1O` [vitamin C, ascorbic acid, reference compound]: the “Cell survival, protection against Aβ1-42 damage” value in the series with SH-SY5Y was “has an effect on increasing cell survival”.

On to “miR-29b-2-5p: mature miRNA-29b-2-5p nucleic acid, sequence cugguuucacaugguggcuuag (SEQ ID NO.: 1); used as mimic (CUGGUUUCACAUGGUGGCUUAG; listed as RNA, chemistry not given here; listed as Homo sapiens)”, for which the “Luminescence of reporter, PSEN-1 double site mutant” value is on record as “abolished the inhibitory effect” in the series on 3′-UTR of PSEN-1 and “no significant difference in the luminescence emitted” with 3′-UTR of PSEN-1 (listed as miRNA-29b-5p). In addition, the “Luminescence of reporter, PSEN-1 site 2 mutant” value with 3′-UTR of PSEN-1 is listed as “abolished the inhibitory effect”; in the series with 3′-UTR of PSEN-1 (listed as miRNA-29b-5p), “no significant difference in the luminescence”. Further, the “Luminescence of reporter, wild type 3′-UTR of PSEN-1” value with 3′-UTR of PSEN-1 is “decreased the expression of the reporter”; in the series on 3′-UTR of PSEN-1 (listed as miRNA-29b-5p), “the luminescence emitted was inhibited”. For the same compound, the PSEN1 expression in series [1] is 100%±19.31%; in series [2] (listed as miRNA-29b-2-5p) it was “decreased”. Also, the “miR-29b-2-5p in lnc-CYP3A43-2 pulldown” value in the series with lnc-CYP3A43-2 was 41.84 fold. Further, the Aβ1-42 expression is listed as 48.75%±26.77% in series [2] and “decreased” in series [2] (listed as miRNA-29b-2-5p).
